Laboratory results taken from patent US20260014203A1, “USE OF COMPOSITION INCLUDING MESENCHYMAL STEM CELLS FOR ALLEVIATING MYELOFIBROSIS” (MEDICAL AND PHARMACEUTICAL INDUSTRY TECHNOLOGY AND …, priority 2022, published 2026).

Legend:
[1] = test system: IDO gene in UCMSCs; assay: Priming of UCMSCs with IFN-γ in combination with a supplement, IDO gene mRNA by real-time PCR; assay type: cell-based, human; details: 250 U/mL of IFN-γ in combination with the supplement, 72 hours; compared with comparative group (IFN-γ only)
Method: In order to determine whether addition of a supplement, which is selected from one of vitamin, steroid, cytokine, double-stranded RNA, and histone deacetylase (HDAC) inhibitor, enhanced the effect of IFN-γ in the priming of UCMSCs, the following experiments were conducted.
In brief, UCMSCs culture as described in Item 2 of the General Experimental Materials were divided into 8 groups, namely, a normal control group (NCG), a comparative group (CG) and 6 experimental groups, i.e., experimental group 1 to experimental group 6 (EG1 to EG6), with the number of UCMSCs in each group being 5.8×10^5 cells. Next, the UCMSCs in each group were subjected to priming, in which the UCMSCs in the CG were treated with 250 U/mL of IFN-γ for 72 hours, the UCMSCs in a respective one of the EG1 to EG6 were treated with 250 U/mL of IFN-γ in combination with 1 μM of retinoic acid, 1 μg/mL of dexamethasone, 10 ng/mL of TNF-α, 25 μg/mL of polyinosinic acid-polycytidylic acid, 0.5 mM of valproic acid, and 1 μM of budesonide, respectively, for 72 hours, while the UCMSCs in the NCG were not subjected to any treatment and were left to stand for 72 hours.

[2] = test system: indoleamine-pyrrole 2,3-dioxygenase (IDO)-expressing UCMSCs; assay: Priming of UCMSCs with IFN-γ, percentage of IDO-expressing UCMSCs by flow cytometry; assay type: cell-based, human
Method: UCMSCs culture as described in Item 2 of the General Experimental Materials were divided into 6 groups, namely, a control group (CG), and 5 experimental groups, i.e., experimental group 1 to 5 (EG1 to EG5), with the number of UCMSCs in each group being 5.8×10^5 cells. Next, the UCMSCs in the EG1 to EG5 were subjected to priming by treating with different concentrations of IFN-γ, i.e., 50, 100, 200, 250 and 500 U/mL of IFN-γ, respectively, for 72 hours, while the UCMSCs in the CG were not subjected to any treatment. For identification of IDO-expressing UCMSCs, the cells in each group were stained with phycoerythrin-conjugated IDO monoclonal antibody (Manufacturer: Thermo Fisher Scientific; Catalogue no.: 12-9477-42) while phycoerythrin-conjugated mouse IgG1 kappa isotype control (Manufacturer: Thermo Fisher Scientific; Catalogue no.: 12-4714-82) served as the control antibody, followed by subjecting the stained cells to flow cytometry conducted using CytoFLEX Flow Cytometer (Beckman Coulter), so as to determine the percentage of IDO-expressing UCMSCs in each group.
In brief, the UCMSCs culture as described in Item 2 of the General Experimental Materials were divided into 9 groups, namely, three control groups, i.e., control groups 1 to 3 (CG1 to CG3), and 6 experimental groups, i.e., experimental group 1-1 (EG1-1), experimental group 1-2 (EG1-2), experimental group 2-1 (EG2-1), experimental group 2-2 (EG2-2), experimental group 3-1 (EG3-1) and experimental group 3-2 (EG3-2), with the number of UCMSCs in each group being 5.8×10^5 cells. Next, the UCMSCs in the EG1-1, EG2-1, and EG3-1 were subjected to priming by treating with 250 U/mL of IFN-γ for 24 hours, 48 hours, and 72 hours, respectively, the UCMSCs in EG1-2, EG2-2, and EG3-2 were treated with 500 U/mL of IFN-γ for 24 hours, 48 hours, and 72 hours, respectively, while the UCMSCs in the CG1, CG2 and CG3 were not subjected to any treatment and were left to stand for 24 hours, 48 hours, and 72 hours, respectively. […]

percentage of IDO-expressing UCMSCs ([2]; 50, 100, 200, 250 and 500 U/mL of IFN-γ, 72 hours, compared with control group, concentration dependent)	percentage of IDO-expressing UCMSCs ([2]; 250 or 500 U/mL of IFN-γ for 24, 48 or 72 hours, compared with the untreated control group of the same time)	percentage of IDO-expressing UCMSCs ([2]; 250 or 500 U/mL of IFN-γ, 72 hours compared with 48 hours and 24 hours)	Compound	relative mRNA expression level of IDO gene [1]
–	–	–	CCCC(CCC)C(=O)O [valproic acid]	higher
higher	higher	higher	IFN-γ: cytokine used for priming of UCMSCs	–
–	–	–	TNF-α	higher
–	–	–	polyinosinic acid-polycytidylic acid	higher
